Measured values: patent publication US20220330549A1, “USE OF N-BENZYLBENZAMIDE-BASED COMPOUND AS HERBICIDE” (Northwest A&F University, priority 2020, published 2022)

Tests used:
Format in all cases: in vivo
Piemarker [1] = test: Herbicidal activity test for indoor pre-emergence soil treatment; parameters: key: level 1-9; higher = more weed remaining vs blank control; details: 150 g a.i./ha, visual inspection 21 days after treatment
Outline: (§1)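 Compounds were formulated as 10% emulsifiable concentrates and sprayed onto the soil 24 h after sowing, at 150 g(a.i.)/ha. Soil was sandy loam (≤2% organic matter), with seeds under 0.5–2.0 cm cover, per NY/T 1155.3-2006. Visual 1–9 ratings relative to blank control were made after 21 days.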

green bristlegrass [2] = test: as above; parameters: key: level 1-9; higher = more weed remaining vs blank control; details: 150 g a.i./ha, visual inspection 21 days after treatment
Outline: as §1

Barnyard grass [3] = test: as above; parameters: key: level 1-9; higher = more weed remaining vs blank control; details: 150 g a.i./ha, visual inspection 21 days after treatment
Outline: as §1

Piemarker [4] = test: Herbicidal activity test for indoor post-emergence spraying on stems and leaves; parameters: key: grade level by weed remaining vs blank control, e.g. 5 = 10.1-15%; details: 150 g a.i./ha, visual inspection 21 days after treatment
Outline: (§2)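 Weeds were grown in a greenhouse from seed and treated by foliar spraying after emergence, per the NY/T 1155.4-2006 method. Visual grading at 21 days: each level reflects the share of weed remaining versus the untreated blank control area.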

green bristlegrass [5] = test: as above; parameters: key: grade level by weed remaining vs blank control, e.g. 5 = 10.1-15%; details: 150 g a.i./ha, visual inspection 21 days after treatment
Outline: as §2

Humulus scandens [6] = test: as above; parameters: key: grade level by weed remaining vs blank control, e.g. 5 = 10.1-15%; details: 150 g a.i./ha, visual inspection 21 days after treatment
Outline: as §2

Amaranthus retroflexus [7] = test: as above; parameters: key: grade level by weed remaining vs blank control, e.g. 5 = 10.1-15%; details: 150 g a.i./ha, visual inspection 21 days after treatment
Outline: as §2

Digitaria sanguinalis [8] = test: as above; parameters: key: grade level by weed remaining vs blank control, e.g. 5 = 10.1-15%; details: 150 g a.i./ha, visual inspection 21 days after treatment
Outline: as §2

Barnyard grass [9] = test: as above; parameters: key: grade level by weed remaining vs blank control, e.g. 5 = 10.1-15%; details: 150 g a.i./ha, visual inspection 21 days after treatment
Outline: as §2

Cyperaceae = test: Post-emergence herbicidal activity test in a paddy field; parameters: key: level scale; higher level = more weed left vs blank control; details: 150 g a.i./ha (penoxsulam control 250 g(a.i.)/h)
Outline: (§3)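 Efficacy was visually estimated 15 and 30 days after spraying, grading weed coverage relative to an untreated neighbouring plot (level 2 = 0 to 2.5%, level 9 = 67.6 to 100%). Treatments were 150 g(a.i.)/ha from 10% emulsifiable concentrates applied at the 4-5 leaf rice stage, four repeats of 50 m^2 each.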

Gramineae = test: as above; parameters: key: level scale; higher level = more weed left vs blank control; details: 150 g a.i./ha (penoxsulam control 250 g(a.i.)/h)
Outline: as §3

Broadleaf weed = test: as above; parameters: key: level scale; higher level = more weed left vs blank control; details: 150 g a.i./ha (penoxsulam control 250 g(a.i.)/h)
Outline: as §3

Portulaca oleracea = test: Field test for weed control in a corn field; details: for Post-emergence weed control effect, Portulaca oleracea: 150 g a.i./ha, after treatment
Outline: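 Post-emergence weed control was evaluated in a corn field by the GB/T 17980.42-2000 method. Emulsifiable concentrates (10%) in water were applied as sprays at 150 g(a.i.)/ha at the 2-5 leaf corn stage, in four replicate 20 m^2 plots. A 25% mesotrione oil dispersion served as control agent. Effects were graded 1-9 relative to weed remaining in blank control areas.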

green bristlegrass [10] = test: Field test for weed control in a corn field; details: for Post-emergence weed control effect, Green bristlegrass: 150 g a.i./ha, after treatment
Outline: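 Herbicidal activity against green bristlegrass was assessed in corn field plots of 20 m^2 per GB/T 17980.42-2000. Test agents, formulated as 10% emulsifiable concentrates, were applied in water at 150 g(a.i.)/ha at the corn 2 leaves to 5 leaves stage, repeated 4 times. A 25% mesotrione oil dispersion served as the control agent, and weed damage was rated on levels 1-9.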

goosegrass = test: Field test for weed control in a corn field; details: for Post-emergence weed control effect, Goose grass: 150 g a.i./ha, after treatment
Outline: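 In this field trial in corn, run per GB/T 17980.42-2000, test agents prepared as 10% emulsifiable concentrates were applied in water as sprays at 150 g(a.i.)/ha at the 2- to 5-leaf corn stage. Each treatment covered 20 m^2 and was repeated 4 times. Goosegrass control was scored 1-9 relative to weed remaining in blank control areas.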

Convolvulus arvensis = test: Field test for weed control in a corn field; details: for Post-emergence weed control effect, Convolvulus arvensis: 150 g a.i./ha, after treatment
Outline: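 Post-emergence herbicidal activity on Convolvulus arvensis was scored in a corn field on a 1-9 scale, based on symptoms and damage severity. Each level corresponds to the weed remaining as a percentage of the blank control area. Sprays of 10% emulsifiable concentrate at 150 g(a.i.)/ha went on at the corn 2–5 leaf stage, with four replicates of 20 m^2 per treatment.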

Amaranthus retroflexus [11] = test: Field test for weed control in a corn field; details: for Post-emergence weed control effect, Amaranthus retroflexus: 150 g a.i./ha, 30 days after treatment
Outline: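 Post-emergence control of Amaranthus retroflexus was assessed in corn plots using the GB/T 17980.42-2000 method. Emulsifiable concentrates (10%) in water were applied by spraying at the 2- to 5-leaf crop stage on 20 m^2 plots, four replicates each, alongside a mesotrione 25% oil dispersion reference. Herbicidal activity was scored on 1-9 levels by weed amount relative to blank control areas.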

Digitaria sanguinalis [12] = test: Field test for weed control in a corn field; details: for Post-emergence weed control effect, Digitaria sanguinalis: 150 g a.i./ha, after treatment
Outline: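 Field trial in a corn field following GB/T 17980.42-2000. Test compounds were formulated as 10% emulsifiable concentrates, diluted in water and sprayed post-emergence at 150 g(a.i.)/ha when corn had 2 to 5 leaves, with 4 replicates on 20 m^2 plots. Control of Digitaria sanguinalis was scored on a 1-9 scale based on weed damage relative to the untreated blank area.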

Solanum nigrum = test: Field test for weed control in a corn field; details: for Post-emergence weed control effect, Solanum nigrum: 150 g a.i./ha, 30 days after treatment
Outline: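 In a corn field trial based on GB/T 17980.42-2000, 10% emulsifiable concentrates diluted in water were sprayed at 150 g(a.i.)/ha at the 2 to 5 leaf stage of corn. Each treatment used 20 m^2 plots and was repeated 4 times, with 25% mesotrione oil dispersion as the reference agent. Solanum nigrum damage was scored on a 1-9 scale against blank control plots.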

Barnyard grass [13] = test: Field test for weed control in a corn field; details: for Post-emergence weed control effect, Barnyard grass: 150 g a.i./ha, 30 days after treatment
Outline: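 Herbicidal activity against barnyard grass was assessed in corn field plots of 20 m^2, with four replicates per treatment. Compounds were applied as water-diluted 10% emulsifiable concentrates at 150 g(a.i.)/ha at the 2-5 leaf corn stage, with 25% mesotrione oil dispersion as the reference agent. Damage was scored on a 1-9 scale against untreated blank plots.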

Acalypha australis = test: Field test for weed control in a corn field; details: for Post-emergence weed control effect, Acalypha australis: 150 g a.i./ha, after treatment
Outline: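 Herbicidal activity against weeds was assessed in corn plots by the GB/T 17980.42-2000 method. Corn at the 2–5 leaf stage received water sprays of 10% emulsifiable concentrates at 150 g(a.i.)/ha, four repeats per treatment over 20 m^2. A 25% mesotrione oil dispersion was the reference. Damage symptoms and severity were rated on levels 1-9 relative to weeds in the blank control area.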

nutgrass flatsedge = test: Field test for weed control in a corn field; details: for Post-emergence weed control effect, Nutgrass flatsedge: 150 g a.i./ha, after treatment
Outline: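 Herbicidal effect on nutgrass flatsedge was measured in a field planted with corn, using the GB/T 17980.42-2000 method. Emulsifiable concentrates (10%) in water were sprayed at 150 g(a.i.)/ha during the 2-leaf to 5-leaf corn stage, on 20 m^2 plots repeated 4 times. 25% mesotrione oil dispersion was the control agent. Activity was scored from 1 to 9 by weed remaining relative to blank control plots.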

Chenopodium album = test: Field test for weed control in a corn field; details: for Post-emergence weed control effect, Chenopodium album: 150 g a.i./ha, after treatment
Outline: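 Field weed-control testing in corn, run per GB/T 17980.42-2000, scored Chenopodium album on a 1-9 level scale, where each level matches a percentage range of weed remaining relative to the blank control area. Sprays of 10% emulsifiable concentrates in water delivered 150 g(a.i.)/ha at the corn 2-leaf to 5-leaf stage on 20 m^2 plots, four replicates each. Mesotrione 25% oil dispersion served as reference.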

Humulus scandens [14] = test: Herbicidal activity test for indoor pre-emergence soil treatment; details: 150 g a.i./ha, visual inspection 21 days after treatment
Outline: as §1

Amaranthus retroflexus [15] = test: as above; parameters: key: 1-9 levels; higher = more weed remaining vs blank control; details: 150 g a.i./ha, visual inspection 21 days after treatment
Outline: as §1

Digitaria sanguinalis [16] = test: as above; parameters: key: 1-9 levels; higher = more weed remaining vs blank control; details: 150 g a.i./ha, visual inspection 21 days after treatment
Outline: as §1

[17] = 150 g(a.i.)/ha, 21 days after treatments

Row | SMILES | Herbicidal Activity Piemarker (Piemarker [1]) | Herbicidal Activity Green bristlegrass (green bristlegrass [2]) | Herbicidal Activity Barnyard grass (Barnyard grass [3]) | Herbicidal Activity Piemarker (Piemarker [4]) | Herbicidal Activity Green bristlegrass (green bristlegrass [5]) | Herbicidal Activity Humulus scandens (Humulus scandens [6]) | Herbicidal Activity Amaranthus retroflexus (Amaranthus retroflexus [7]) | Herbicidal Activity Digitaria sanguinalis (Digitaria sanguinalis [8]) | Herbicidal Activity Barnyard grass (Barnyard grass [9]) | Herbicidal activity 15 days after treatment Cyperaceae (Cyperaceae) | Herbicidal activity 30 days after treatment Cyperaceae (Cyperaceae) | Herbicidal activity 15 days after treatment Gramineae (Gramineae) | Herbicidal activity 30 days after treatment Gramineae (Gramineae) | Herbicidal activity 15 days after treatment Broadleaf weed (Broadleaf weed) | Herbicidal activity 30 days after treatment Broadleaf weed (Broadleaf weed) | Post-emergence weed control effect, Portulaca oleracea (Portulaca oleracea) | Post-emergence weed control effect, Green bristlegrass (green bristlegrass [10]) | Post-emergence weed control effect, Goose grass (goosegrass) | Post-emergence weed control effect, Convolvulus arvensis (Convolvulus arvensis) | Post-emergence weed control effect, Amaranthus retroflexus (Amaranthus retroflexus [11]) | further results
1 | Cc1ccc(CNC(=O)c2cccc(C)c2)cc1 [Compound B15] | 1 | 2 (equivalent to 0 to 2.5% of the weed in the blank control area) | 1 | 1 | 1 | 1 | 1 | 1 | 1 | 1 | 2 (equivalent to 0 to 2.5% of the weed in the blank control area) | 2 (equivalent to 0 to 2.5% of the weed in the blank control area) | 1 | 1 | 1 | 1 | 2 (equivalent to 0 to 2.5% of the weed in the blank control area) | 2 (equivalent to 0 to 2.5% of the weed in the blank control area) | 2 (equivalent to 0 to 2.5% of the weed in the blank control area) | 1 | Post-emergence weed control effect, Digitaria sanguinalis (Digitaria sanguinalis [12]): 2 (equivalent to 0 to 2.5% of the weed in the blank control area); Post-emergence weed control effect, Solanum nigrum (Solanum nigrum): 1; Post-emergence weed control effect, Barnyard grass (Barnyard grass [13]): 1; Post-emergence weed control effect, Acalypha australis (Acalypha australis): 1; Post-emergence weed control effect, Nutgrass flatsedge (nutgrass flatsedge): 2 (equivalent to 0 to 2.5% of the weed in the blank control area); Post-emergence weed control effect, Chenopodium album (Chenopodium album): 1; Herbicidal Activity Humulus scandens (Humulus scandens [14]): 3 (equivalent to 2.6 to 5% of the weed in the blank control area); Herbicidal Activity Amaranthus retroflexus (Amaranthus retroflexus [15]): 2 (equivalent to 0 to 2.5% of the weed in the blank control area); Herbicidal Activity Digitaria sanguinalis (Digitaria sanguinalis [16]): 1
2 | Cc1cccc(CNC(=O)c2cccc(C)c2)c1 [Compound B14, 3-methyl-N-(3-methylbenzyl)benzamide] | 1 | 1 | 1 | 1 | 1 | 1 | 1 | 1 | 1 | 1 | 1 | 1 | 1 | 1 | 1 | 1 | 1 | 1 | 1 | 1 | controlling effect on Portulaca oleracea (Portulaca oleracea; [17]): 1; controlling effect on green bristlegrass (green bristlegrass [10]; [17]): 1; controlling effect on goosegrass (goosegrass; [17]): 1; controlling effect on Convolvulus arvensis (Convolvulus arvensis; [17]): 1; controlling effect on Amaranthus retroflexus (Amaranthus retroflexus [11]; [17]): 1; Post-emergence weed control effect, Digitaria sanguinalis (Digitaria sanguinalis [12]): 1; controlling effect on Digitaria sanguinalis (Digitaria sanguinalis [12]; [17]): 1; Post-emergence weed control effect, Solanum nigrum (Solanum nigrum): 1; controlling effect on Solanum nigrum (Solanum nigrum; [17]): 1; Post-emergence weed control effect, Barnyard grass (Barnyard grass [13]): 1; controlling effect on barnyard grass (Barnyard grass [13]; [17]): 1; Post-emergence weed control effect, Acalypha australis (Acalypha australis): 1; controlling effect on Acalypha australis (Acalypha australis; [17]): 1; Post-emergence weed control effect, Nutgrass flatsedge (nutgrass flatsedge): 1; controlling effect on nutgrass flatsedge (nutgrass flatsedge; [17]): 1; Post-emergence weed control effect, Chenopodium album (Chenopodium album): 1; controlling effect on Chenopodium album (Chenopodium album; [17]): 1; Herbicidal Activity Humulus scandens (Humulus scandens [14]): 3 (equivalent to 2.6 to 5% of the weed in the blank control area); Herbicidal Activity Amaranthus retroflexus (Amaranthus retroflexus [15]): 2 (equivalent to 0 to 2.5% of the weed in the blank control area); Herbicidal Activity Digitaria sanguinalis (Digitaria sanguinalis [16]): 2 (equivalent to 0 to 2.5% of the weed in the blank control area)
